Source: patent US9802937B2, “Substituted pyrazolo{4,3-D}pyrimidines as kinase inhibitors” (ORIGENIS GMBH, priority 2011, dated 2017)

Legend:
[1] = target: MYLK (Homo sapiens, UniProt Q15746); test: MYLK Assay (LanthaScreen Eu Kinase Binding Assay); settings: 5 nM MYLK, 30 nM tracer 236, RT 1 h; read-out: MYLK Activities: IC50
Description: In the assay LanthaScreen™ Eu Kinase Binding Assay by Invitrogen Corporation (Carlsbad) the effect of invention of a compound on the phosphorylation is determined by measurement of fluorescence intensity emission ratio based on the binding and displacement of a proprietary, Alexa Fluor® 647-labeled, ATP-competitive kinase inhibitor scaffold (kinase tracer) to the kinase of interest as described above.
To the wells of an 384 well small volume plate (Greiner, Frickenhausen) are added (i) the compound under test in 5% is DMSO/distilled water (5 μl), (ii) 5 μl of the kinase antibody mixture resulting in a final concentration 5 nM MYLK, 2 nM EU-Anti-GST antibody in 1× kinase buffer A. The reaction was started with addition of (iii) 5 μl resulting in a final concentration of 30 nM tracer 236. The assay plate was incubated at RT for 1 h and fluorescence intensity readings were collected using a TECAN M1000 at two wavelengths of λex 340/λem 615 nm and λex 340/λem 665 nm with a delay time of 100 μs and an integration time of 200 μs after 60 minutes. The emission ratio was calculated by division of the acceptor/tracer emission ([…]) by the antibody/donor emission ([…]). The inhibitor concentration was plotted versus the emission ratio to determine the IC50 using XLFit 5.0 (IDBS, Guildford) to fit to a sigmoidal dose response curve with a variable slope.

[2] = target: LRRK2 (Homo sapiens, UniProt Q5S007); test: LRRK2-LRRK2 G2019S-Assay (LanthaScreen Eu Kinase Binding Assay); settings: 5 nM LRRK2 or their mutants, 10 nM tracer 236, RT 1 h; read-out: LRRK2 Activities: IC50
Chain of LRRK2 (Q5S007 970-2527 limits assumed): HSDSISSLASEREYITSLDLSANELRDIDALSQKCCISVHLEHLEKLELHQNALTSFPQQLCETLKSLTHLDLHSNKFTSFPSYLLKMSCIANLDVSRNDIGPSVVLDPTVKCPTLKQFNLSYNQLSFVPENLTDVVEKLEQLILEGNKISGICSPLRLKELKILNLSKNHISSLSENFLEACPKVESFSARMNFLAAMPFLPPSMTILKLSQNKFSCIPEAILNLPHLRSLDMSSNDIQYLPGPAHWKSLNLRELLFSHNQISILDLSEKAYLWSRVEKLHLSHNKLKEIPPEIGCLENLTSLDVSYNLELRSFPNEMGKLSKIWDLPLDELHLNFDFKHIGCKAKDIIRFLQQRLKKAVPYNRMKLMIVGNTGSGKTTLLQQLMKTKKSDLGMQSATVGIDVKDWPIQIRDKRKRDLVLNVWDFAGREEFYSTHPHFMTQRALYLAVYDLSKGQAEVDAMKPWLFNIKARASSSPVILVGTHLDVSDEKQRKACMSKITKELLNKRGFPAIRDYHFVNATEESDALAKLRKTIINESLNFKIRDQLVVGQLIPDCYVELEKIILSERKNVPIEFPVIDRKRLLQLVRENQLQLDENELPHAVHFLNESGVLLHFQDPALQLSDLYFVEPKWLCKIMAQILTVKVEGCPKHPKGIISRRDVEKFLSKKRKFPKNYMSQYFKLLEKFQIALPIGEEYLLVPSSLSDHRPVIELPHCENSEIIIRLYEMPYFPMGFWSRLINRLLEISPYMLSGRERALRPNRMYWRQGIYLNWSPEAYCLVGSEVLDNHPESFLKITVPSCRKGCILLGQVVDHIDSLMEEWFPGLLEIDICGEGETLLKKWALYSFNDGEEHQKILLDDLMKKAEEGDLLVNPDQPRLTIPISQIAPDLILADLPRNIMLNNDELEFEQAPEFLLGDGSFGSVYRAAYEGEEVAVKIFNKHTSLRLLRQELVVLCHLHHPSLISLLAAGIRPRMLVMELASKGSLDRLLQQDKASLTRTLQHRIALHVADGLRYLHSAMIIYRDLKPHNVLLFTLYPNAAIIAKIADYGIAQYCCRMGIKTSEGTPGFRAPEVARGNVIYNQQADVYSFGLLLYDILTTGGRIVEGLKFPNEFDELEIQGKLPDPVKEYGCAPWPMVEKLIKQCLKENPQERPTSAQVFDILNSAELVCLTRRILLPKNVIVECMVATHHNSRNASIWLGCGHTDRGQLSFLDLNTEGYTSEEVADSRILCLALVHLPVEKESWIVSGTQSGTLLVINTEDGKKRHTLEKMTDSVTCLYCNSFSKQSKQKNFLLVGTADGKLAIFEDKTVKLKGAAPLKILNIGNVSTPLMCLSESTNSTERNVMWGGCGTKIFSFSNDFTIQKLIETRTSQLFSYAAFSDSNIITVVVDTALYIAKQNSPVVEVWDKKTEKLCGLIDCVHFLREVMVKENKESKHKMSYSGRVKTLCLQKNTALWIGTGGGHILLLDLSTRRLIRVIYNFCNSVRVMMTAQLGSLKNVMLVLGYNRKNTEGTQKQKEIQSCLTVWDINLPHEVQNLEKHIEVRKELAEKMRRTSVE
Method in brief: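 TR-FRET tracer-displacement binding assay with 5 nM LRRK2 or mutant, 2 nM Eu-anti-GST antibody and 10 nM tracer 236 in kinase buffer A. Incubated 1 h at RT; 665/615 nm emission ratio read (ex 340 nm). IC50 from variable-slope sigmoidal fit.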

[3] = target: T1, SYK kinase (Homo sapiens, UniProt P43405); test: SYK Assay (OMNIA KINASE ASSAY, SOX peptide fluorescence); assay type: biochemical; settings: apparent Ki calculated from the IC50 using the Cheng-Prusoff equation; 1 mM ATP, 30° C.; read-out: SYK Activities: Ki
T1 construct: purchased Invitrogen, Carlsbad
Method in brief: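 Continuous Omnia assay: SYK phosphorylation of SOX-labelled Tyr 7 peptide (10 µM) with 1 mM ATP and 0.2 mM DTT at 30 °C. Fluorescence (ex 360/em 485 nm) read every 30 s for 30 min. Reaction velocity versus inhibitor concentration gives IC50, converted to apparent Ki by Cheng-Prusoff.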

Chain of MYLK (Q15746 whole entry): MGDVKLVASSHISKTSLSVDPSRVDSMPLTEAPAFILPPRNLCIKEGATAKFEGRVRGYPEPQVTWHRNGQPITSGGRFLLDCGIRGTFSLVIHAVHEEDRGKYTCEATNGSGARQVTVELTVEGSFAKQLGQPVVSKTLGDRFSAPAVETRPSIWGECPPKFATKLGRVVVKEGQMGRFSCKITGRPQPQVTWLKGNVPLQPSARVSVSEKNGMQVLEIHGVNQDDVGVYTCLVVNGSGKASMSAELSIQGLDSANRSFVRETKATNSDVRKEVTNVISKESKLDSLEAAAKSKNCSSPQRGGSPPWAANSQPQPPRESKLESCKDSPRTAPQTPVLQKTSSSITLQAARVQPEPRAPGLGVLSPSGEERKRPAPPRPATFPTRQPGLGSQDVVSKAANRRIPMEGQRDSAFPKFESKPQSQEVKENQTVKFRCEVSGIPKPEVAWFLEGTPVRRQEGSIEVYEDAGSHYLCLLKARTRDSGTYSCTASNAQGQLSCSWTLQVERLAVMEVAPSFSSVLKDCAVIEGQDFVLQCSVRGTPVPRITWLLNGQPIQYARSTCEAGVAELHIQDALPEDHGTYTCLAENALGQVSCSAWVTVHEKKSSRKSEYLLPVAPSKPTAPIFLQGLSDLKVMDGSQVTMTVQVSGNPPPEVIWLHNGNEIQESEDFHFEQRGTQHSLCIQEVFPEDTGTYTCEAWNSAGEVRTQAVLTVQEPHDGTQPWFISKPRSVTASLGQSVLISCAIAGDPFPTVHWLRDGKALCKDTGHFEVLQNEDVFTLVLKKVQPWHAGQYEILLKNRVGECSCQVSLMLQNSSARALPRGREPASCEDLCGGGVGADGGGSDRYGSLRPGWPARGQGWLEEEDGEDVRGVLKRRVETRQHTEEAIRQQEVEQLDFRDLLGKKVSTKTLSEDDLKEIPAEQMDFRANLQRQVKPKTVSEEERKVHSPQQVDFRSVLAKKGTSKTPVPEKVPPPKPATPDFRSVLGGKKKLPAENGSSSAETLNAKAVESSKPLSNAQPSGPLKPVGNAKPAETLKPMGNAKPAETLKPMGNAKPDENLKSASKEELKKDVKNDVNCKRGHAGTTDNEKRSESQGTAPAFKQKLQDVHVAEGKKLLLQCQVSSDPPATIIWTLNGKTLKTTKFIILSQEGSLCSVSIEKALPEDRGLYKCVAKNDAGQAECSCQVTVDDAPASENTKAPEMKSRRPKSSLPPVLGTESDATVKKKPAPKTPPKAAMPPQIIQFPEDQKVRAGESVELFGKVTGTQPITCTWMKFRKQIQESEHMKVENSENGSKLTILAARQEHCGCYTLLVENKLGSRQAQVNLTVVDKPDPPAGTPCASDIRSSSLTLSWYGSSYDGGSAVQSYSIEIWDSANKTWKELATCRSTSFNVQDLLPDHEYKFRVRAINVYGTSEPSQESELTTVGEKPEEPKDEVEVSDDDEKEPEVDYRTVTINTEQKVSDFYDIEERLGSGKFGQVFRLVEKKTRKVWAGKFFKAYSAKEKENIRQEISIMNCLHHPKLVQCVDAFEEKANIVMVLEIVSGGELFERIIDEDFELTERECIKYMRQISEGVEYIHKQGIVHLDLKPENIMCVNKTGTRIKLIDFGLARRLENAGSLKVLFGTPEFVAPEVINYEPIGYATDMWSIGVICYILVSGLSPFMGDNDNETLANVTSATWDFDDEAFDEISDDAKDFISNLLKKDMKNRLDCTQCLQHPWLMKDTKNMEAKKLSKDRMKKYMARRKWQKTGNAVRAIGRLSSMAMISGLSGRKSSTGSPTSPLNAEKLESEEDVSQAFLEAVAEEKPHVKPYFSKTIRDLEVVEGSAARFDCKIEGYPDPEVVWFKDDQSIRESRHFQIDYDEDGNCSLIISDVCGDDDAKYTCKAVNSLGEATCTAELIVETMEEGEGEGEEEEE

Row | SMILES | IC50 [1] | IC50 [2] | Ki [3]
1 | COc1cc(C(=O)N2CCC(N3CCN(C)CC3)CC2)ccc1Nc1nc(-c2cccs2)nc2cn[nH]c12 [Example #139, (3-methoxy-4-((5-(thiophen-2-yl)-1H-pyrazolo[4,3-d]pyrimidin-7-yl)amino)phenyl)(4-(4-methylpiperazin-1-yl)piperidin-1-yl)methanone] | < 5 µM | 0.01 to 0.1 µM | 0.01 to 0.1 µM
2 | O=S1(=O)CCN(c2ccc(Nc3nc(-c4ccsc4)nc4cn[nH]c34)cc2)CC1 [Example #143, 4-(4-((5-(thiophen-3-yl)-1H-pyrazolo[4,3-d]pyrimidin-7-yl)amino)phenyl)thiomorpholine 1,1-dioxide] | < 5 µM | 0.01 to 0.1 µM | < 0.01 µM
3 | CC(=O)N1CCN(c2ccc(Nc3nc(-c4ccsc4)nc4cn[nH]c34)cc2)CC1 [Example #144, 1-(4-(4-((5-(thiophen-3-yl)-1H-pyrazolo[4,3-d]pyrimidin-7-yl)amino)phenyl)piperazin-1-yl)ethan-1-one] | < 5 µM | < 0.01 µM | < 0.01 µM
4 | CN1CCN(C(=O)c2ccc(Nc3nc(-c4ccsc4)nc4cn[nH]c34)cc2)CC1 [Example #147, (4-methylpiperazin-1-yl)(4-((5-(thiophen-3-yl)-1H-pyrazolo[4,3-d]pyrimidin-7-yl)amino)phenyl)methanone] | < 5 µM | 0.01 to 0.1 µM | 0.01 to 0.1 µM
5 | CC(C)(C)N1CCN(c2ccc(Nc3nc(-c4ccsc4)nc4cn[nH]c34)cc2)CC1 [Example #161, N-(4-(4-(tert-butyl)piperazin-1-yl)phenyl)-5-(thiophen-3-yl)-1H-pyrazolo[4,3-d]pyrimidin-7-amine] | < 5 µM | 0.01 to 0.1 µM | < 0.01 µM
6 | CC(C)(C)N1CCN(c2ccc(Nc3nc(-c4cccs4)nc4cn[nH]c34)cc2)CC1 [Example #163, N-(4-(4-(tert-butyl)piperazin-1-yl)phenyl)-5-(thiophen-2-yl)-1H-pyrazolo[4,3-d]pyrimidin-7-amine] | < 5 µM | 0.1 to 1 µM | < 0.01 µM
7 | COc1ccc(-c2nc(Nc3ccc(N4CCN(C(C)(C)C)CC4)cc3)c3[nH]ncc3n2)cc1 [Example #172, N-(4-(4-(tert-butyl)piperazin-1-yl)phenyl)-5-(4-methoxyphenyl)-1H-pyrazolo[4,3-d]pyrimidin-7-amine] | < 5 µM | 0.1 to 1 µM | < 0.01 µM
8 | CN1CCN(c2ccc(Nc3nc(-c4nccs4)nc4cn[nH]c34)cc2)CC1 [Example #179, N-(4-(4-methylpiperazin-1-yl)phenyl)-5-(thiazol-2-yl)-1H-pyrazolo[4,3-d]pyrimidin-7-amine] | < 5 µM | 0.1 to 1 µM | < 0.01 µM
9 | CN1CCN(c2ccc(Nc3nc(-c4cccc(S(N)(=O)=O)c4)nc4cn[nH]c34)cc2)CC1 [Example #182, 3-(7-((4-(4-methylpiperazin-1-yl)phenyl)amino)-1H-pyrazolo[4,3-d]pyrimidin-5-yl)benzenesulfonamide] | < 5 µM | 0.01 to 0.1 µM | < 0.01 µM
10 | CN1CCN(c2ccc(Nc3nc(-c4cccc(NS(C)(=O)=O)c4)nc4cn[nH]c34)cc2)CC1 [Example #187, N-(3-(7-((4-(4-methylpiperazin-1-yl)phenyl)amino)-1H-pyrazolo[4,3-d]pyrimidin-5-yl)phenyl)methanesulfonamide] | < 5 µM | 0.1 to 1 µM | < 0.01 µM
11 | CS(=O)(=O)Nc1cccc(-c2nc(Nc3ccc(N4CCNCC4)cc3)c3[nH]ncc3n2)c1 [Example #188, N-(3-(7-((4-(piperazin-1-yl)phenyl)amino)-1H-pyrazolo[4,3-d]pyrimidin-5-yl)phenyl)methanesulfonamide] | < 5 µM | 0.1 to 1 µM | < 0.01 µM
12 | COc1ccc(Nc2nc(-c3cccc(NS(C)(=O)=O)c3)nc3cn[nH]c23)cc1OC [Example #189, N-(3-(7-((3,4-dimethoxyphenyl)amino)-1H-pyrazolo[4,3-d]pyrimidin-5-yl)phenyl)methanesulfonamide] | < 5 µM | 0.1 to 1 µM | < 0.01 µM
13 | CS(=O)(=O)Nc1cccc(-c2nc(Nc3ccc4c(c3)NC(=O)CC4)c3[nH]ncc3n2)c1 [Example #190, N-(3-(7-((2-oxo-1,2,3,4-tetrahydroquinolin-7-yl)amino)-1H-pyrazolo[4,3-d]pyrimidin-5-yl)phenyl)methanesulfonamide] | < 5 µM | 0.01 to 0.1 µM | < 0.01 µM
14 | CC(=O)N1CCN(c2ccc(Nc3nc(-c4cccc(NS(C)(=O)=O)c4)nc4cn[nH]c34)cc2)CC1 [Example #191, N-(3-(7-((4-(4-acetylpiperazin-1-yl)phenyl)amino)-1H-pyrazolo[4,3-d]pyrimidin-5-yl)phenyl)methanesulfonamide] | < 5 µM | 0.1 to 1 µM | < 0.01 µM
15 | CSc1cccc(-c2nc(Nc3ccc(N4CCN(C)CC4)cc3)c3[nH]ncc3n2)c1 [Example #225, N-(4-(4-methylpiperazin-1-yl)phenyl)-5-(3-(methylthio)phenyl)-1H-pyrazolo[4,3-d]pyrimidin-7-amine] | < 5 µM | 0.1 to 1 µM | < 0.01 µM
16 | NS(=O)(=O)c1cccc(-c2nc(Nc3ccc4c(c3)NC(=O)CC4)c3[nH]ncc3n2)c1 [Example #238, 3-(7-((2-oxo-1,2,3,4-tetrahydroquinolin-7-yl)amino)-1H-pyrazolo[4,3-d]pyrimidin-5-yl)benzenesulfonamide] | < 5 µM | 0.01 to 0.1 µM | < 0.01 µM
17 | COc1cc(Nc2nc(-c3cccc(S(N)(=O)=O)c3)nc3cn[nH]c23)ccc1N1CCOCC1 [Example #240, 3-(7-((3-methoxy-4-morpholinophenyl)amino)-1H-pyrazolo[4,3-d]pyrimidin-5-yl)benzenesulfonamide] | < 5 µM | 0.1 to 1 µM | < 0.01 µM
18 | c1cc(N2CCOCC2)ccc1Nc1nc(-c2ccc3cn[nH]c3c2)nc2cn[nH]c12 [Example #247, 5-(1H-indazol-6-yl)-N-(4-morpholinophenyl)-1H-pyrazolo[4,3-d]pyrimidin-7-amine] | < 5 µM | < 0.01 µM | < 0.01 µM
19 | CN1CCN(c2ccc(Nc3nc(-c4ccc5cn[nH]c5c4)nc4cn[nH]c34)cc2)CC1 [Example #248, 5-(1H-indazol-6-yl)-N-(4-(4-methylpiperazin-1-yl)phenyl)-1H-pyrazolo[4,3-d]pyrimidin-7-amine] | < 5 µM | 0.1 to 1 µM | < 0.01 µM
20 | CS(=O)(=O)c1cccc(Nc2nc(-c3cccs3)nc3cn[nH]c23)c1 [Example #254, N-(3-(methylsulfonyl)phenyl)-5-(thiophen-2-yl)-1H-pyrazolo[4,3-d]pyrimidin-7-amine] | < 5 µM | 0.1 to 1 µM | 0.01 to 0.1 µM
21 | C[S+]([O-])c1cccc(Nc2nc(-c3cccs3)nc3cn[nH]c23)c1 (stereo not drawn) [Example #268, N-(3-(methylsulfinyl)phenyl)-5-(thiophen-2-yl)-1H-pyrazolo[4,3-d]pyrimidin-7-amine] | < 5 µM | 0.1 to 1 µM | 0.01 to 0.1 µM
22 | CN1CCN(c2ccc(Nc3nc(-c4ccccc4F)nc4cn[nH]c34)cc2)CC1 [Example #275, 5-(2-fluorophenyl)-N-(4-(4-methylpiperazin-1-yl)phenyl)-1H-pyrazolo[4,3-d]pyrimidin-7-amine] | < 5 µM | 0.1 to 1 µM | < 0.01 µM
23 | Fc1ccccc1-c1nc(Nc2ccc(N3CCN(C4CC4)CC3)cc2)c2[nH]ncc2n1 [Example #279, N-(4-(4-cyclopropylpiperazin-1-yl)phenyl)-5-(2-fluorophenyl)-1H-pyrazolo[4,3-d]pyrimidin-7-amine] | < 5 µM | 0.1 to 1 µM | 0.01 to 0.1 µM
24 | COc1ccc(Nc2nc(-c3ccc4cn[nH]c4c3)nc3cn[nH]c23)cc1OC [Example #280, N-(3,4-dimethoxyphenyl)-5-(1H-indazol-6-yl)-1H-pyrazolo[4,3-d]pyrimidin-7-amine] | < 5 µM | 0.01 to 0.1 µM | < 0.01 µM
25 | CN1CCN(C2CCN(c3ccc(Nc4nc(-c5c(F)cccc5F)nc5cn[nH]c45)cc3)CC2)CC1 [Example #284, 5-(2,6-difluorophenyl)-N-(4-(4-(4-methylpiperazin-1-yl)piperidin-1-yl)phenyl)-1H-pyrazolo[4,3-d]pyrimidin-7-amine] | < 5 µM | 0.1 to 1 µM | 0.01 to 0.1 µM
